Entries after “also recorded” stand apart in the source; their conditions may differ. Read-outs that look alike come from different tables or passages of the source.
Legend:
Rec-1 = test: WST-1 proliferation assay, Rec-1; format: cell-based, human; conditions: Homo sapiens, Rec1; WST-1, 48 hours of treatment
Experimental: (§1) Albert Pinhasov (Ariel University, Ariel, Israel). […] Granta cells were kindly provided by Prof.
(§2) Table 3 [resents the calculated IC50 values (μM) for each chimera in different hematological malignancies cell-lines. The proliferation rate was measured by WST-1 assay after 48 hours of treatment. The result shown for each concentration point represents the […]

OCI-AML3 = test: WST-1 proliferation assay, OCI-AML3; format: cell-based; conditions: Homo sapiens, OCI-AML-3; WST-1, 48 hours of treatment
Experimental: as §1, §2

MUTZ5 = test: WST-1 proliferation assay, MUTZ5; format: cell-based, human; conditions: Homo sapiens; WST-1, 48 hours of treatment
Experimental: as §1, §2

KG-1a = test: WST-1 proliferation assay, KG-1a; format: cell-based; conditions: Homo sapiens, KG-1a; WST-1, 48 hours of treatment
Experimental: as §1, §2

JEKO-1 = test: WST-1 proliferation assay, JEKO-1; format: cell-based, human; conditions: Homo sapiens, JeKo-1; WST-1, 48 hours of treatment
Experimental: as §1, §2

DND41 = test: WST-1 proliferation assay, DND41; format: cell-based, human; conditions: Homo sapiens, DND41; WST-1, 48 hours of treatment
Experimental: as §1, §2

[1] = tested on: OCI-AML3, KG-1a, Granta, Jeko-1, BV-173 and MDA MB-231 cell-lines; test: Low-dose proliferation test on aggressive cell-lines; format: cell-based; conditions: 50 nM-250 nM
Experimental: The cytotoxicity of the synthesized chimeras on MDA MB-328 was determined by measuring the mitochondrial enzyme activity, using a commercial XTT assay kit (Biological Industries, Bet-Ha'emek, Israel). All samples contained DMSO (Sigma Aldrich) at final concentration […], XTT reagent was added, and the cells were re-incubated for additional 3 h. During that time, the absorbencies in the wells were measured with a TECAN Infinite M200 ELISA reader at both 480 and 680 nm. The difference between these measurements was used for calculating the % Growth Inhibition (GI) in test wells compared to two controls: cells that were exposed to the medium and solvent, and those which were exposed to a solvent-free medium. All the tests were done in tetra-plicate; each experiment was conducted three times.
Therefore, it was decided to reduce chimera 9 and the parental drug (doxorubicin) doses to 50-250 nM range on the most four aggressive hematological malignancies cell-lines (OCI-AML3, KG-1a, Granta and Jeko-1). Moreover, chimera 9 was examined on an additional aggressive leukemia cell line (BV-173) and breast cancer cell-line model (MDA MB-231).

[2] = tested on: aggressive papillary thyroid cancer cells; test: Proliferation of aggressive papillary thyroid cancer cells; format: cell-based; conditions: 10 nM and 100 nM, with respect to DMSO control
Experimental: Chimera 9 (also referred to herein as Doxorubizen) was evaluated in two different concentrations (10 nM and 100 nM) on aggressive papillary thyroid cancer and with respect to the parent anticancer drug Doxorubicin.

[3] = tested on: OCI-AML3, KG-1a, Granta, Jeko-1 and BV-173 cells; test: Mitochondrial depolarization (Muse Mitochondrial Kit); format: cell-based; conditions: 50-250 nM depending on cell line, 48 hours, compared to the parental drug
Experimental: Changes in mitochondrial potential and cellular plasma membrane permeabilization, were determined with the Muse® Mitochondrial Kit (Luminex, USA). Briefly, Cells were treated with DMSO or the relevant chimera for 48 hours. The cells were incubated with MitoPotential working solution for 20 minutes at 37° C. in 5% CO2. Then, 5 μL Muse® MitoPotential 7-ADD reagent were added and the cells were incubated for 5 minutes at room temperature. The percentage of four cell populations: live (mitopotential+/7−AAD−), depolarized live (mitopotential−/7−AAD−), dead (mitopotential+/7−AAD+), and depolarized dead (mitopotential−/7−AAD+) were measured using the Muse® Cell Analyzer (Luminex, USA).
(§3) Chimera 9 was evaluated for its biological impact on mitochondrial function and cell death. To that end, the inventor treated the following cell lines OCI-AML3 (100 nM), KG-1a (100 nM), Granta (250 nM), Jeko-1 (50 nM) and BV-173 (50 nM) with doxorubicin or chimera 9.

[4] = tested on: OCI-AML3, KG-1a, Granta, Jeko-1 and BV-173 cells; test: Apoptosis assay (Muse AnnexinV and Dead Cell kit); format: cell-based; conditions: 50-250 nM depending on cell line, 48 hours, compared to the parental drug
Experimental: Cells were analyzed using the multifunctional Muse®AnnexinV and Dead Cell kit (Luminex/Millipore, Austin, Texas, USA). Cells were treated with indicated concentrations of Doxorubizen, the corresponding parent drug, or with DMSO. After 48 hours of incubation cells were harvested, washed twice in PBS, and 2×10^5 cells were stained with 100 μl of Muse AnnexinV and Dead Cell Reagent. Samples were incubated for 20 min at room temperature in the dark. Cells were analyzed by the Muse®CellAnalyzer system (Millipore, Billerica, MA, USA), and the percentage of apoptosis was determined using Guava software (Luminex/Millipore, USA, version 3.3).
as §3

[5] = tested on: triple negative breast cancer (TNBC) MDA 231 cells; conditions: for weight maintenance, survival and tumor growth suppression compared with doxorubicin: ip administration
Experimental: Five-week-old athymic Nude-Foxn 1nu male mice (ENVIGO Labs, Nes Ziona, Israel) were subcutaneously inoculated on the dorsal left side with […] (1×10^6 cell) into nu/nu mice, 0.2 mL per mouse) and tumors allowed to establish over time. When tumor volume reached 100 mm^3, Doxorubicin (Dox) and Doxorubizen (Chimera 9) were administered intraperitoneally (ip). Animals were removed from an experiment if either of the following conditions were fulfilled: reduction of 20% or more body weight; tumor volume>0.55 cm^3. The tumor dimensions were measured using a Vernier caliper and the volume was calculated according to the equation: Volume (mm^3) ¼ length×width×width×½ three times per week. The in vivo experiments were approved by the Animal Ethics Committee (Authorization number IL-179-06-19).
Chimera 9 was also evaluated for its effect on breast cancer model. For this evaluation, […] nude female (6-8 weeks) mice (groups 1, 2, two mice per group, groups 3, 4, 5 three mice per group) were inoculated with triple negative breast cancer (TNBC) MDA 231 cells. Group 1 was used as the control for tumor growth. After 10 days, mice were […] (ip) administered with Doxorubicin (groups 2 and 4) and Chimera 9 (Doxorubizen) (groups 3 and 5) in the following regime: ip administration of 2.5 mg/kg Doxorubicin once per week (group 2) and three sequential days per week (group 4); ip administration of 3.5 mg/kg chimera 9 once per week (group 3) and three sequential days per week (group 5). Overall experiment carried out for 5 weeks and 4 days, when the tumor volumes for all the groups were monitored. Tumors were then resected and measured.

[6] = tested on: 10 hematological cell-lines; test: In vitro cytotoxicity screening on the panel of hematological cell-lines (WST-1)
Experimental: The above cells were cultured in RPMI medium (Gibco, Thermo Fisher Scientific Inc., USA). […] All media were supplemented with 10% heat-inactivated Fetal Bovine Serum (FBS, Biological industries, Israel), 2 mM glutamine (Biological industries, Israel) and 1% penicillin and streptomycin (Biological industries, Israel). Cells were cultured at 37° C. in a humidified incubator with 5% CO2.
Growth inhibition in hematological malignancies cell-lines was measured by tetrazolium WST-1 assay (Roche, Basel, Switzerland). Cells (1*10^4) were treated with various concentrations of the specific chimera or parental drug. After 48 h of incubation, 10 μl of WST-1 reagent was added to the plate and incubated for 1 h at 37° C., at which point the absorbance (450 nm) was measured in an ELISA plate reader (Synergy HTX multi-mode reader, Winooski, Vermont, USA).
MUTZ5 and MHH-CALL4; B-cell Acute lymphocytic leukemia (B-cell ALL) model. DND41; T-ALL model. KG-1a and OCI-AML-3; Acute myeloid leukemia (AML) model and HEL; erythroleukemia model.

[7] = Group 5: ip 3.5 mg/kg, three sequential days per week

COC(=O)N(C)/N=N/c1ccc(CNC2CC(OC3CC(O)(C(=O)CO)Cc4c(O)c5c(c(O)c43)C(=O)c3c(OC)cccc3C5=O)OC(C)C2O)cc1 (centres unmarked) [Chimera 9, (E)-methyl-3-(4-(((3-hydroxy-2-methyl-6-((3,5,12-trihydroxy-3-(2-hydroxyacetyl)-10-methoxy-6,11-dioxo-1,2,3,4,6,11-hexahydrotetracen-1-yl)oxy)tetrahydro-2H-pyran-4-yl)amino)methyl)phenyl)-1-methyltriaz-2-ene-1-carboxylate]
IC50 (Rec-1): 520 nM | IC50 (OCI-AML3): 1240 nM | IC50 (MUTZ5): 520 nM | IC50 (KG-1a): 400 nM | IC50 (JEKO-1): 850 nM | IC50 (DND41): 640 nM | proliferation rate versus corresponding controls [1]: significant reduction in the proliferation rate | proliferation of thyroid cancer cells [2]: reduce significantly the proliferation | mitochondrial membrane potential [3]: significantly collapsed mitochondrial membrane potential | rate of apoptosis [4]: substantial increase in the rate of apoptosis | outcome compared to Group 2 (Doxorubicin once per week) ([5]; Group 3: ip 3.5 mg/kg once per week): no statistical significance | body weight [5, 7]: didn't lose weight | toxicity vs doxorubicin [5, 7]: reduced toxicity | tumor volume [5, 7]: even reduced | survival ([5]; Group 5: ip 3.5 mg/kg, three sequential days per week, 3.5 mg/kg): full survival; also recorded: survived until the end of the experiment | weight maintenance, survival and tumor growth suppression compared with doxorubicin [5]: markedly superior | weight maintenance, survival and tumor growth suppression compared with doxorubicin ([5]; listed as Doxorubizen): profoundly superior | cytotoxic effect ([6]; 250 nM): exceptional cytotoxic effect | effect on proliferation rate across the examined cell-lines ([6]; 10 hematological cell-lines, WST-1): inhibited the proliferation rate in all the examined cell-lines | cytotoxic effect compared to the parental non-conjugated drug ([6]; chimera vs its parent drug): reduced proliferation rate of numerous cell-lines; also recorded: superior to Doxorubicin
